Measurements as given in US20240317706A1, “COMPOUNDS THAT MEDIATE PROTEIN DEGRADATION AND METHODS OF USE THEREOF” (Monte Rosa Therapeutics, Inc., priority 2021, published 2024).

What was measured:
CDK2 = molecular target: T1, CDK2 (Homo sapiens, UniProt P24941); experiment: HiBiT assay (CDK2 degradation); type: cell-based; settings: HEK293 clonal line with CRISPR KI HiBiT tag on CDK2, 24 hours, HiBiT Lysis Reagent
T1 construct: HEK293 clonal lines with CRISPR KI HiBiT tag on CDK2 proteins; host or cells: HEK293 clonal line, CRISPR knock-in HiBiT-CDK2, stably expressing LgBiT
Experimental: HEK293 clonal lines with CRISPR KI HiBiT tag on CDK2 proteins and stably expressing LgBiT protein were obtained from Promega (Madison, WI). Cells were plated at 5000 cells per well using Multiflo (BioTek) in 384-well white solid bottom plates (Corning, 3570BC) in 25 ul volume in DMEM media (DMEM, high glucose, HEPES, no phenol red (ThermoFisher Scientific, 21063029)) containing 10% FBS (Corning, 35-075-CV), 1% Penicillin/Streptomycin (ThermoFisher Scientific, 15140-122). Cells were incubated for 16 hours at 37° C., 5% CO2. 75 nL of a compound at 30 μM were dosed into the plate using an Echo® 650 liquid handler (Labcyte). Cells were incubated at 37° C., 5% CO2 for 24 hours. 5 ul of HiBiT Lysis Reagent (Promega, N3030) is added using Combi Multidrop (ThermoFisher Scientific), plates are incubated for 15′ at 37° C., 5% CO2 and then signal was read on a Pherastar FSX using “LUM plus” optic module.
Analysis was performed in Scinamic (Scinamic, Cambridge, MA). Luminescence response (R) was calculated by the formula: response=100*(S−N)/(P−N) where S is the signal of the well, N and P the mean negative and positive control values respectively of the same plate. The luminescence response was then fitted in Scinamic using a 3-parameter agonist logistic fit (hillslope=1, EC50>0, top/bottom unconstrained).

CRBN-DDB1 = CRBN-DDB1 (Homo sapiens, UniProt Q96SW2); experiment: Compound binding to CRBN by HTRF assay; settings: CRBN-DDB1 2.5 nM, Cy5-Thalidomide 100 nM, 30 min; Ki from geometric mean IC50 by Cheng-Prustoff transformation
In short: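 HTRF displacement of Cy5-thalidomide probe (100 nM) from His-CRBN-DDB1 (2.5 nM) with anti-His terbium cryptate, in HEPES/NaCl/TCEP/EDTA/Tween20 buffer. 10-point 1:3 compound series, 30 min at ambient temperature; signal normalised to DMSO and lenalidomide controls, IC50 fitted and Ki derived by Cheng-Prusoff.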

Chain of CRBN-DDB1 (Q96SW2 whole entry): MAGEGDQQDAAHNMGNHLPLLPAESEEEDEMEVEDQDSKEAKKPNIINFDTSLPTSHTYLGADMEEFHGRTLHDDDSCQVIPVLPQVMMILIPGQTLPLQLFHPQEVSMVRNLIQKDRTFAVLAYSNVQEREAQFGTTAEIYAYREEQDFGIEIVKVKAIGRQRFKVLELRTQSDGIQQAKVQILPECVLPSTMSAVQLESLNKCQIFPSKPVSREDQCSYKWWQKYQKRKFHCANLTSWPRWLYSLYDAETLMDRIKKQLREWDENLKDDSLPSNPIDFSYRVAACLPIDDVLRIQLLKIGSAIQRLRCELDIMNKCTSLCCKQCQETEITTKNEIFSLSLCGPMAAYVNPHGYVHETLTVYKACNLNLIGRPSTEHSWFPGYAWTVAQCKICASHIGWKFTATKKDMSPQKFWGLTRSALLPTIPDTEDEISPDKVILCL
Chain of CRBN-DDB1 (Q16531 whole entry partner): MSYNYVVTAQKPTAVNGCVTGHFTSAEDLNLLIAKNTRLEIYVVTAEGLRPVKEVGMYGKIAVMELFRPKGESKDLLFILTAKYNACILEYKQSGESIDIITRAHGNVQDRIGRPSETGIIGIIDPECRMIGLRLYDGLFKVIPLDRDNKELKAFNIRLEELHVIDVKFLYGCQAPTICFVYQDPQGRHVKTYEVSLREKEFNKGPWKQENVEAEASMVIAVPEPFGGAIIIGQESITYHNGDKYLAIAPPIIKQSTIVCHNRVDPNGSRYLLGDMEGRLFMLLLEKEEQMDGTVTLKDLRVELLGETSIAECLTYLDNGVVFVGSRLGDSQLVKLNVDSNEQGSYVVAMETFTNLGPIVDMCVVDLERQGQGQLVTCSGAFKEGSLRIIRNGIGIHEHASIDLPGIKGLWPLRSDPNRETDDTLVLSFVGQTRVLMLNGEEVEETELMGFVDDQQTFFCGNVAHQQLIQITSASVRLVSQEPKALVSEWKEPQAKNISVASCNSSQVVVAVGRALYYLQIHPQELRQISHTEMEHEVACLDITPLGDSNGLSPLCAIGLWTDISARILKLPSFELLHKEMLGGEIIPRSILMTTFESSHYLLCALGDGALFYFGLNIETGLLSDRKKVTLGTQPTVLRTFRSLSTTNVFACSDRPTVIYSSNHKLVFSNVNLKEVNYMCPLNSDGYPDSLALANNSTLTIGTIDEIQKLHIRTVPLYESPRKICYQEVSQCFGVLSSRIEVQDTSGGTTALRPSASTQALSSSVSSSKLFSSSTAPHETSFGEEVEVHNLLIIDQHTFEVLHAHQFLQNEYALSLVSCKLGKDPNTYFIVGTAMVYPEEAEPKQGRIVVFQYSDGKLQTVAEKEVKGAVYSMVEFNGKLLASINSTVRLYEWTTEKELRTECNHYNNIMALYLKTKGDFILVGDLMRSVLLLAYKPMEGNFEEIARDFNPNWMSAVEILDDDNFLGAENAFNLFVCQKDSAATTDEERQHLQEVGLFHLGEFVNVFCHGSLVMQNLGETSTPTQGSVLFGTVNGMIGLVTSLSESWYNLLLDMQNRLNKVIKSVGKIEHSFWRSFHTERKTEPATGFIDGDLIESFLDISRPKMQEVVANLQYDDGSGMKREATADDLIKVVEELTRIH

Structure (SMILES) | Dmax (CDK2) [%] | Ki (CRBN-DDB1) [nM]
O=C1CCC(N2Cc3ccc(CNC(=O)OCC4CC(F)(F)C4)cc3C2=O)C(=O)N1 (stereo not drawn) [Compound 46, (3,3-difluorocyclobutyl)methyl N-{[2-(2,6-dioxopiperidin-3-yl)-3-oxo-2,3-dihydro-1H-isoindol-5-yl]methyl}carbamate] | 10 to 50 | ≤ 100
O=C1CCC(N2Cc3ccc(CNC(=O)OCCC4CC(F)(F)C4)cc3C2=O)C(=O)N1 (stereo not drawn) [Compound 47, 2-(3,3-difluorocyclobutyl)ethyl N-{[2-(2,6-dioxopiperidin-3-yl)-3-oxo-2,3-dihydro-1H-isoindol-5-yl]methyl}carbamate] | 10 to 50 | 100 to 1000
O=C1CCC(N2Cc3ccc(CNC(=O)OCC4CC45CCOCC5)cc3C2=O)C(=O)N1 (stereo not drawn) [Compound 52, {6-oxaspiro[2.5]octan-1-yl}methyl N-{[2-(2,6-dioxopiperidin-3-yl)-3-oxo-2,3-dihydro-1H-isoindol-5-yl]methyl}carbamate] | 10 to 50 | 100 to 1000
O=C1CCC(N2Cc3ccc(CNC(=O)OCC4CCC(F)(F)C4)cc3C2=O)C(=O)N1 (stereo not drawn) [Compound 54, (3,3-difluorocyclopentyl)methyl N-{[2-(2,6-dioxopiperidin-3-yl)-3-oxo-2,3-dihydro-1H-isoindol-5-yl]methyl}carbamate] | 10 to 50 | 100 to 1000
CC1(COC(=O)NCc2ccc3c(c2)C(=O)N(C2CCC(=O)NC2=O)C3)CCCCO1 (stereo not drawn) [Compound 64, (2-methyloxan-2-yl)methyl N-{[2-(2,6-dioxopiperidin-3-yl)-3-oxo-2,3-dihydro-1H-isoindol-5-yl]methyl}carbamate] | 10 to 50 | ≤ 100
CC1(CCCOC(=O)NCc2ccc3c(c2)C(=O)N(C2CCC(=O)NC2=O)C3)CC1 (stereo not drawn) [Compound 65, 3-(1-methylcyclopropyl)propyl N-{[2-(2,6-dioxopiperidin-3-yl)-3-oxo-2,3-dihydro-1H-isoindol-5-yl]methyl}carbamate] | 50 to 80 | ≤ 100
COC1CC(COC(=O)NCc2ccc3c(c2)C(=O)N(C2CCC(=O)NC2=O)C3)C1 (stereo not drawn) [Compound 66, (3-methoxycyclobutyl)methyl N-{[2-(2,6-dioxopiperidin-3-yl)-3-oxo-2,3-dihydro-1H-isoindol-5-yl]methyl}carbamate] | 10 to 50 | 100 to 1000
CCOC1CC(COC(=O)NCc2ccc3c(c2)C(=O)N(C2CCC(=O)NC2=O)C3)C1 (stereo not drawn) [Compound 67, (3-ethoxycyclobutyl)methyl N-{[2-(2,6-dioxopiperidin-3-yl)-3-oxo-2,3-dihydro-1H-isoindol-5-yl]methyl}carbamate] | 10 to 50 | 100 to 1000
CC(C)(CCOC(=O)NCc1ccc2c(c1)C(=O)N(C1CCC(=O)NC1=O)C2)C1CC1 (stereo not drawn) [Compound 69, 3-cyclopropyl-3-methylbutyl N-{[2-(2,6-dioxopiperidin-3-yl)-3-oxo-2,3-dihydro-1H-isoindol-5-yl]methyl}carbamate] | 50 to 80 | ≤ 100
O=C1CCC(N2Cc3ccc(CNC(=O)OCC4(F)CCC4)cc3C2=O)C(=O)N1 (stereo not drawn) [Compound 74, (1-fluorocyclobutyl)methyl N-{[2-(2,6-dioxopiperidin-3-yl)-3-oxo-2,3-dihydro-1H-isoindol-5-yl]methyl}carbamate] | ≤ 10 | 100 to 1000
CC(C)(C)C1CC(OC(=O)NCc2ccc3c(c2)C(=O)N(C2CCC(=O)NC2=O)C3)C1 (stereo not drawn) [Compound 84, 3-tert-butylcyclobutyl N-{[2-(2,6-dioxopiperidin-3-yl)-3-oxo-2,3-dihydro-1H-isoindol-5-yl]methyl}carbamate] | 50 to 80 | 100 to 1000
O=C1CCC(N2Cc3ccc(CNC(=O)OCC4C(F)(F)C45CC5)cc3C2=O)C(=O)N1 (stereo not drawn) [Compound 86, {2,2-difluorospiro[2.2]pentan-1-yl}methyl N-{[2-(2,6-dioxopiperidin-3-yl)-3-oxo-2,3-dihydro-1H-isoindol-5-yl]methyl}carbamate] | 50 to 80 | ≤ 100
O=C1CCC(N2Cc3ccc(CNC(=O)OCC4CCC(F)(F)CC4)cc3C2=O)C(=O)N1 (stereo not drawn) [Compound 88, (4,4-difluorocyclohexyl)methyl N-{[2-(2,6-dioxopiperidin-3-yl)-3-oxo-2,3-dihydro-1H-isoindol-5-yl]methyl}carbamate] | 10 to 50 | 100 to 1000
CC(C)C1CCC(OC(=O)NCc2ccc3c(c2)C(=O)N(C2CCC(=O)NC2=O)C3)CC1 (stereo not drawn) [Compound 89, 4-(propan-2-yl)cyclohexyl N-{[2-(2,6-dioxopiperidin-3-yl)-3-oxo-2,3-dihydro-1H-isoindol-5-yl]methyl}carbamate] | 50 to 80 | 100 to 1000
O=C1CCC(N2Cc3ccc(CNC(=O)OC4CC5(CCOCC5)C4)cc3C2=O)C(=O)N1 (stereo not drawn) [Compound 90, 7-oxaspiro[3.5]nonan-2-yl N-{[2-(2,6-dioxopiperidin-3-yl)-3-oxo-2,3-dihydro-1H-isoindol-5-yl]methyl}carbamate] | 10 to 50 | 100 to 1000
O=C1CCC(N2Cc3ccc(CNC(=O)OCC4CC5(C4)CC54CCC4)cc3C2=O)C(=O)N1 (stereo not drawn) [Compound 93, {dispiro[3.0.3^5.1^4]nonan-2-yl}methyl N-{[2-(2,6-dioxopiperidin-3-yl)-3-oxo-2,3-dihydro-1H-isoindol-5-yl]methyl}carbamate] | 50 to 80 | ≤ 100
O=C1CCC(N2Cc3ccc(CNC(=O)OCC4CC5(CCCC5)CO4)cc3C2=O)C(=O)N1 (stereo not drawn) [Compound 94, {2-oxaspiro[4.4]nonan-3-yl}methyl N-{[2-(2,6-dioxopiperidin-3-yl)-3-oxo-2,3-dihydro-1H-isoindol-5-yl]methyl}carbamate] | 10 to 50 | 100 to 1000
O=C1CCC(N2Cc3ccc(CNC(=O)OCC4CC45CCC(F)(F)CC5)cc3C2=O)C(=O)N1 (stereo not drawn) [Compound 95, {6,6-difluorospiro[2.5]octan-1-yl}methyl N-{[2-(2,6-dioxopiperidin-3-yl)-3-oxo-2,3-dihydro-1H-isoindol-5-yl]methyl}carbamate] | 10 to 50 | 100 to 1000
